Reference: ChEMBL document CHEMBL1131901, “Synthesis and opiate receptor binding properties of 17-methyl-6,7-dehydro-3,14-dihydroxy-4,5alpha-epoxy-6,7:4',5'-pyrimidin omorphinans” (Bioorg Med Chem Lett, 1999)

Tests used:
[1] = molecular target: T1, Kappa-type opioid receptor (Homo sapiens, UniProt P41145); settings: CHO
Description: Antagonistic activity against human opioid Kappa receptor transfected into Chinese hamster ovary (CHO) cells using [3H]U-69593 as radioligand

Mu-type opioid receptor [2] = molecular target: T2, Mu-type opioid receptor (Homo sapiens, UniProt P35372); assay: Agonistic activity against human opioid Mu receptor transfected into Chinese hamster ovary (CHO) cells using [3H]DAMGO as radioligand; format: functional, cell-based
T2 sequence (P35372 whole entry): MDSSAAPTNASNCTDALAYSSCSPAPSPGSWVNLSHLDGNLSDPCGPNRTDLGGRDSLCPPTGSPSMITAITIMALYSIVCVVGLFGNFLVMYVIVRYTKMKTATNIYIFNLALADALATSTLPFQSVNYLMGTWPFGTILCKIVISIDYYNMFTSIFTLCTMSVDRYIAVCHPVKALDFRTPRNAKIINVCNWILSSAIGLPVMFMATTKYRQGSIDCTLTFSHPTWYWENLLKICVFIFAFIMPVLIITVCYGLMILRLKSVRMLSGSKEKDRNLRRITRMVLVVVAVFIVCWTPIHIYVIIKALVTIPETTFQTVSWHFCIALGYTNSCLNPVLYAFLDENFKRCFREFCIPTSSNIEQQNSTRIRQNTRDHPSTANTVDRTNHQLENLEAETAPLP

[3] = molecular target: T1, Kappa-type opioid receptor; assay: Binding affinity towards human opioid Kappa receptor transfected into Chinese hamster ovary (CHO) cells using [3H]U-69593 as radioligand.; format: cell-based
[4] = molecular target: T3, Delta-type opioid receptor (Homo sapiens, UniProt P41143); assay: (§1) Agonistic activity against human opioid Delta receptor transfected into Chinese hamster ovary (CHO) cells using [3H]Cl-DPDPE as radioligand; format: functional, cell-based
T3 sequence (P41143 whole entry): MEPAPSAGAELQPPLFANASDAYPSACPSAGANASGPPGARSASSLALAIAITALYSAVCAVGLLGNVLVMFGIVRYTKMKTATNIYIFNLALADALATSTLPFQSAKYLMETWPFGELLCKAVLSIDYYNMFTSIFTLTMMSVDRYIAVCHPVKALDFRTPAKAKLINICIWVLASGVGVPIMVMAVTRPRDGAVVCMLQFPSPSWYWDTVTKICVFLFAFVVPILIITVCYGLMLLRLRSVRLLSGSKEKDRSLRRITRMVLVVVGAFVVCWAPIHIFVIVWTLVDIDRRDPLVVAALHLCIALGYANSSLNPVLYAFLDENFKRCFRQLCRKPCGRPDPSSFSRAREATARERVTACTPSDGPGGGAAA

Mu-type opioid receptor [5] = molecular target: T2, Mu-type opioid receptor; assay: Binding affinity towards human opioid Mu receptor transfected into Chinese hamster ovary (CHO) cells using [3H]DAMGO as radioligand; format: cell-based
[6] = molecular target: T3, Delta-type opioid receptor; assay: Binding affinity towards human opioid Delta receptor transfected into Chinese hamster ovary (CHO) cells using [3H]Cl-DPDPE as radioligand.; format: cell-based
Mu-type opioid receptor [7] = molecular target: T2, Mu-type opioid receptor; assay: Agonistic activity against human opioid Mu receptor transfected into Chinese hamster ovary (CHO) cells using [3H]-DAMGO as radioligand; format: functional, cell-based
[8] = molecular target: T1, Kappa-type opioid receptor; assay: (§2) Agonistic activity against human opioid Kappa receptor transfected into Chinese hamster ovary (CHO) cells using [3H]U-69593 as radioligand; format: functional, cell-based
[9] = molecular target: T3, Delta-type opioid receptor; assay: as §1; format: functional, cell-based; remark: listed apart in the source
[10] = molecular target: T1, Kappa-type opioid receptor; assay: as §2; format: functional, cell-based; remark: listed apart in the source
Mu-type opioid receptor [11] = molecular target: T2, Mu-type opioid receptor; assay: as §1; format: functional, cell-based

T1 sequence (P41145 whole entry): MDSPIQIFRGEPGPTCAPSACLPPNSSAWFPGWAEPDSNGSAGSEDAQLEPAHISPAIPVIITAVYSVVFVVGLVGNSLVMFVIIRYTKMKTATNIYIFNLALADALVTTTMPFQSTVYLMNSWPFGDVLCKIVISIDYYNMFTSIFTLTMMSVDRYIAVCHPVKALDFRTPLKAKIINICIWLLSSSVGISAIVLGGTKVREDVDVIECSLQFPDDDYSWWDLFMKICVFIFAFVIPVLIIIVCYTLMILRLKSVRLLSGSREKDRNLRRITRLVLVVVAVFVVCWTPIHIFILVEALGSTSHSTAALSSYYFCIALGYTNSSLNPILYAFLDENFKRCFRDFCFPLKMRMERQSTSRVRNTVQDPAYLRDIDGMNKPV

## CN1CCC23c4c5ccc(O)c4OC2c2n[nH]cc2CC3(O)C1C5 (centres undefined)
[1]
  Ke: 59.3
Mu-type opioid receptor [2]
  Stimulation: 80.3%
[3]
  Ki: 0.0119 µM
[4]
  EC50: 0.025 µM
Mu-type opioid receptor [5]
  Ki: 0.00172 µM
[6]
  Ki: 0.0122 µM
Mu-type opioid receptor [7]
  EC50: 0.0193 µM
[8]
  Stimulation: 18.9%
[9]
  Stimulation: 75.2%

## CN1CCC23c4c5ccc(O)c4OC2c2nc(O)ncc2CC3(O)C1C5 (centres undefined)
Mu-type opioid receptor [2]
  Stimulation: 87.7%
[8]
  Stimulation: 40.7%
[9]
  Stimulation: 97%

## Cc1ncc2c(n1)C1Oc3c(O)ccc4c3C13CCN(C)C(C4)C3(O)C2 (centres undefined)
Mu-type opioid receptor [2]
  Stimulation: 109%
[3]
  Ki: 0.0685 µM
[4]
  EC50: 0.0959 µM
Mu-type opioid receptor [5]
  Ki: 0.00526 µM
[6]
  Ki: 0.024 µM
Mu-type opioid receptor [7]
  EC50: 0.0719 µM
[8]
  Stimulation: 97%
[10]
  EC50: 2.73 µM
[9]
  Stimulation: 60%

## CN1CCC23c4c5ccc(O)c4OC2c2nc(N)ncc2CC3(O)C1C5 (centres undefined)
[3]
  Ki: 0.0211 µM
[4]
  EC50: 0.0661 µM
Mu-type opioid receptor [5]
  Ki: 0.00732 µM
[6]
  Ki: 0.019 µM
Mu-type opioid receptor [7]
  EC50: 0.0752 µM
[8]
  Stimulation: 34.3%
[10]
  EC50: 1.07 µM
Mu-type opioid receptor [11]
  Stimulation: 78.7%

## CN1CCC23c4c5ccc(O)c4OC2c2[nH]c(=O)ncc2CC3(O)C1C5 (centres undefined)
[3]
  Ki: 0.0123 µM
[4]
  EC50: 0.0615 µM
Mu-type opioid receptor [5]
  Ki: 0.00375 µM
[6]
  Ki: 0.0191 µM
Mu-type opioid receptor [7]
  EC50: 0.11 µM
[10]
  EC50: 1.02 µM

## CN1CCC23c4c5ccc(O)c4OC2c2nc(-c4ccccc4)ncc2CC3(O)C1C5 (centres undefined)
Mu-type opioid receptor [2]
  Stimulation: 89.4%
[3]
  Ki: 0.045 µM
[4]
  EC50: 0.024 µM
Mu-type opioid receptor [5]
  Ki: 0.00734 µM
[6]
  Ki: 0.00648 µM
Mu-type opioid receptor [7]
  EC50: 0.0584 µM
[8]
  Stimulation: 49.5%
[10]
  EC50: 1.42 µM
[9]
  Stimulation: 92.5%
